In brackets after ≈: the same amount, converted by molar mass.
Assays:
Assay type in all cases: functional
[1] = system: Mycobacterium tuberculosis; experiment: Antimycobacterial activity against Mycobacterium tuberculosis NTB1 harboring DprE1 G387S mutant assessed as inhibition of bacterial growth measured after 21 days by microbroth dilution method; conditions: time 21 day
[2] = system: Mycobacterium tuberculosis; experiment: Antimycobacterial activity against Mycobacterium tuberculosis DR1 harboring mmpL3 V681I mutant assessed as inhibition of bacterial growth measured after 21 days by microbroth dilution method; conditions: time 21 day
[3] = system: Mycobacterium tuberculosis; experiment: Antimycobacterial activity against Mycobacterium tuberculosis 88.7 harboring pyrG V186G mutant assessed as inhibition of bacterial growth measured after 21 days by microbroth dilution method; conditions: time 21 day
[4] = system: Mycobacterium tuberculosis; experiment: Antimycobacterial activity against Mycobacterium tuberculosis 53.3 harboring Rv2466c W28S mutant assessed as inhibition of bacterial growth measured after 21 days by microbroth dilution method; conditions: time 21 day
[5] = system: Mycobacterium tuberculosis; experiment: Antimycobacterial activity against Mycobacterium tuberculosis Ty1 harboring Rv3405c C190T mutant assessed as inhibition of bacterial growth measured after 21 days by microbroth dilution method; conditions: time 21 day
[6] = system: Mycobacterium tuberculosis; experiment: Antimycobacterial activity against Mycobacterium tuberculosis 81.10 harboring EthA del (1109 to 37 residues) mutant assessed as inhibition of bacterial growth measured after 21 days by microbroth dilution method; conditions: time 21 day
[7] = system: Mycobacterium tuberculosis; experiment: Antimycobacterial activity against streptomycin, isoniazid, rifampicin, ethambutol, pyrazinamide, ethionamide and capreomycin resistant Mycobacterium tuberculosis IC2 assessed as inhibition of bacterial growth measured after 21 days by microbroth dilution method; conditions: IC2, 504 h, time 21 day

Compound	MIC [1] [µg/mL]	MIC [2] [µg/mL]	MIC [3] [µg/mL]	MIC [4] [µg/mL]	MIC [5] [µg/mL]	MIC [6] [µg/mL]	MIC [7] [µg/mL]
Clc1ccc(CN2CCC(C3c4ccccc4-c4ccccc43)C2)cc1 (centres undefined)	0.5 (≈ 1.39 µM)	0.5 (≈ 1.39 µM)	0.5 (≈ 1.39 µM)	0.5 (≈ 1.39 µM)	0.5 (≈ 1.39 µM)	0.5 (≈ 1.39 µM)	0.5 (≈ 1.39 µM)
NNC(=O)c1ccncc1 [ISONIAZID]	0.025 (≈ 0.182 µM)	0.025 (≈ 0.182 µM)	0.025 (≈ 0.182 µM)	0.025 (≈ 0.182 µM)	0.025 (≈ 0.182 µM)	0.025 (≈ 0.182 µM)	> 0.2
